Experiments:
MTA3 = type: cell-based; details: MCF-7 cells; CoCl2 200 μM 8 hr, FIG. 8E; DMOG only stated
HeLa cells = test: Control experiment: toxicity of DMOG to the cells over the time course; type: cell-based; details: control experiments to FIG. 2
[1] = test system: C57BL/6J and Balb/c mice after TBI; test: Murine total body irradiation (TBI) model, 30 day survival; type: in vivo, mouse; details: 8 Gy TBI, DMOG 100 mg/kg ip 4 hrs before, 12 hrs and 36 hrs after TBI, 30 days
Experimental: Mice (10 per group) were irradiated (8 Gy TBI) and survival monitored over 30 days. DMOG (100 mg/kg) or saline was administered ip 4 hrs before TBI, and 12 hrs and 36 hrs after TBI.
Mice: This study was carried out in strict accordance with the recommendations in the Guide for the Care and Use of Laboratory Animals of the National Institutes of Health. The protocol was reviewed and approved by the Dana-Farber Cancer Institute's Animal Care and Use Committee (Protocol number 06-029). All efforts were made to minimize suffering. Male Balb/c mice were purchased from Taconic (NY, USA) and C57BL/6J mice were purchased from The Jackson Laboratory (ME, USA). For total body irradiation (TBI), mice were irradiated at the dose rate of 110 cGy/min using a ^137Cs source (Gammacell® 40Exactor, Best Theratronics, Ottawa, Canada). DMOG (dissolved in saline) or saline was administered IP before and after TBI. The mice were given normal water that had undergone reverse osmosis and powdered food (Purina Pico Lab Chow) after TBI. The animals were closely inspected after TBI for ill-health and the moribund animals were sacrificed according to the guidelines in our approved ACUC protocol. The Kaplan-Meier survival curves were plotted for saline-treated and DMOG-treated cohorts. The statistical analysis of the Kaplan-Meier survival curves was performed with Graph Pad Prism Version 5 using Mantel Log-rank test.

Suv39h1 = type: cell-based
CHD4 [2] = type: cell-based; details: MCF-7 cells; CoCl2 200 μM 8 hr, FIG. 8D; DMOG only stated
CHD4 [3] = type: cell-based; details: MCF7 cells; CoCl2 200 μM time course, FIG. 8F; DMOG only stated

For COC(=O)CNC(=O)C(=O)OC [DMOG, dimethyloxalylglycine], the “MTA3 mRNA levels” value (MTA3) was “increased”, the “toxicity over the time course of the experiment” value (HeLa cells) was “did not exhibit significant toxicity” and the “survival after TBI” value ([1]; Balb/c mice, FIG. 6B) was “significantly improved the survival”. For the same molecule, the “survival after TBI” value ([1]; C57BL/6J mice, FIG. 6A) was “significantly improved the survival”, the “DMOG dependent induction of Suv39h1 in cells lacking Hif1α” value (Suv39h1) was “abolished” and the “expression of the Suv39h1 methyltransferase” value (Suv39h1) was “increased expression of the Suv39h1 methyltransferase”. For the same molecule, the “CHD4 mRNA levels” value (CHD4 [2]) was “increased” and the CHD4 protein levels (CHD4 [3]) was “increased”.
